Laboratory results reported in patent US12275976B2, “Phloroglucinol-resistant cell, in particular yeast” (COMPAGNIE GENERALE DES ETABLISSEMENTS MICHELIN, priority 2019, dated 2025).
In brackets after ≈: the same amount, converted by molar mass.

Columns and labels:
CC787-1B yeast strain = test: Growth kinetics of yeast cells in the presence of increasing phloroglucinol concentrations
Procedure: (§1) In order to know the threshold of phloroglucinol tolerance of bacteria or of yeasts, growth kinetics were prepared in the presence of various concentrations of phloroglucinol. These preliminary experiments aimed to evaluate their EC50.
(§2) The experiment was carried out in the following way. The phloroglucinol was dissolved at the concentration of 15 g·l^−1 in complete medium (Yeast Extract 1%+BactoPeptone 2%) containing 2% glucose as carbon source (YPD medium). The culture media containing lower phloroglucinol concentrations were obtained by diluting this first medium in the same YPD medium containing 2% glucose.
(§3) In order to carry out the experiment, the wild-type yeast or bacterial cells were inoculated at an OD600 nm of 0.05 into the various media, thus containing, as soon as the cultures were started, either 0 (positive control for growth indicated C+), 1, 2.5, 5, 7.5, 10 or 15 g·l^−1 of phloroglucinol. The cultures were carried out in 48-well microplates, at 28° C. for the yeasts, at 37° C. for the bacterial strain, with vigorous shaking for 24 h. Two yeast strains (Saccharomyces cerevisiae) and one bacterial strain (Escherichia coli) were tested.

SNQ2 = target: T1, SNQ2 (Saccharomyces cerevisiae, UniProt P32568); test: Phloroglucinol tolerance of yeast strains overexpressing PDRs (OD600 nm at 24 h); type: cell-based; details: inferred from SNQ2 overexpression lifting toxicity at 20 g·l^−1 phloroglucinol
T1 construct: expressed in transfected cells; host or cells: Saccharomyces cerevisiae, gene integrated at the JLP1 locus under the pCCW12 promoter (clones YA2786-1 and YA2786-2)
From the text: The genes encoding the PDR proteins were amplified from yeast (W303-1A) genomic DNA by PCR (“polymerase chain reaction”) and cloned in plasmids. The accuracy of the sequence was verified by sequencing. The various genes encoding the PDRs were integrated into the genome at the JLP1 locus according to the structure described in FIG. 4A. Each strain constructed bears a YA number, and a library of 28 yeast strains overexpressing a PDR transporter was thus created, in a proportion of two clones per transporter.
In order to test the impact of the PDR overexpression on the phloroglucinol tolerance at high phloroglucinol concentration (>15 g·l^−1), the strains were cultured as follows.
The phloroglucinol was dissolved at the concentration of 20 g·l^−1 in YPD medium containing 2% glucose as carbon source. In order to carry out the experiment, the yeasts expressing each PDR were inoculated at an OD600 nm of 0.05. The cultures were carried out in 48-well microplates, incubated with agitation at 28° C. for 24 h. After 24 h, the OD600 nm is measured. FIG. 5 represents the OD600 nm values obtained at the end of the culture.

yeast cells = test: Phloroglucinol toxicity in yeast with ethanol added after 20 h of culture; details: 20 g/l of phloroglucinol, 50 g·l^−1 ethanol added at 20 h, read at 48 h
Procedure: The toxicity of phloroglucinol in the presence of ethanol added after 20 h of culture was tested.
The experiments were carried out in an Erlenmeyer flask with vigorous stirring in complete medium containing 2% glucose as carbon source. The yeast cells were inoculated at an OD600 nm of 0.05 from precultures in complete medium. The cultures are completed with increasing concentrations of phloroglucinol (0, 1, 5, 10, 15, 20 g/l) and incubated for 48 h. Two series of Erlenmeyer flasks were prepared. In the second series, 50 g·l^−1 of ethanol are added at 20 h. The growth is monitored by taking samples at 18 h, 20 h, 22 h, 24 h, 42 h and 48 h, and measuring the OD600 nm.

[1] = tested on: bacterial strain of Escherichia coli (ECAO50, derived from Escherichia coli K12); test: microbe, parasite or virus in culture; details: 24 h
Procedure: as §1, §2, §3

T1 sequence (P32568 whole entry): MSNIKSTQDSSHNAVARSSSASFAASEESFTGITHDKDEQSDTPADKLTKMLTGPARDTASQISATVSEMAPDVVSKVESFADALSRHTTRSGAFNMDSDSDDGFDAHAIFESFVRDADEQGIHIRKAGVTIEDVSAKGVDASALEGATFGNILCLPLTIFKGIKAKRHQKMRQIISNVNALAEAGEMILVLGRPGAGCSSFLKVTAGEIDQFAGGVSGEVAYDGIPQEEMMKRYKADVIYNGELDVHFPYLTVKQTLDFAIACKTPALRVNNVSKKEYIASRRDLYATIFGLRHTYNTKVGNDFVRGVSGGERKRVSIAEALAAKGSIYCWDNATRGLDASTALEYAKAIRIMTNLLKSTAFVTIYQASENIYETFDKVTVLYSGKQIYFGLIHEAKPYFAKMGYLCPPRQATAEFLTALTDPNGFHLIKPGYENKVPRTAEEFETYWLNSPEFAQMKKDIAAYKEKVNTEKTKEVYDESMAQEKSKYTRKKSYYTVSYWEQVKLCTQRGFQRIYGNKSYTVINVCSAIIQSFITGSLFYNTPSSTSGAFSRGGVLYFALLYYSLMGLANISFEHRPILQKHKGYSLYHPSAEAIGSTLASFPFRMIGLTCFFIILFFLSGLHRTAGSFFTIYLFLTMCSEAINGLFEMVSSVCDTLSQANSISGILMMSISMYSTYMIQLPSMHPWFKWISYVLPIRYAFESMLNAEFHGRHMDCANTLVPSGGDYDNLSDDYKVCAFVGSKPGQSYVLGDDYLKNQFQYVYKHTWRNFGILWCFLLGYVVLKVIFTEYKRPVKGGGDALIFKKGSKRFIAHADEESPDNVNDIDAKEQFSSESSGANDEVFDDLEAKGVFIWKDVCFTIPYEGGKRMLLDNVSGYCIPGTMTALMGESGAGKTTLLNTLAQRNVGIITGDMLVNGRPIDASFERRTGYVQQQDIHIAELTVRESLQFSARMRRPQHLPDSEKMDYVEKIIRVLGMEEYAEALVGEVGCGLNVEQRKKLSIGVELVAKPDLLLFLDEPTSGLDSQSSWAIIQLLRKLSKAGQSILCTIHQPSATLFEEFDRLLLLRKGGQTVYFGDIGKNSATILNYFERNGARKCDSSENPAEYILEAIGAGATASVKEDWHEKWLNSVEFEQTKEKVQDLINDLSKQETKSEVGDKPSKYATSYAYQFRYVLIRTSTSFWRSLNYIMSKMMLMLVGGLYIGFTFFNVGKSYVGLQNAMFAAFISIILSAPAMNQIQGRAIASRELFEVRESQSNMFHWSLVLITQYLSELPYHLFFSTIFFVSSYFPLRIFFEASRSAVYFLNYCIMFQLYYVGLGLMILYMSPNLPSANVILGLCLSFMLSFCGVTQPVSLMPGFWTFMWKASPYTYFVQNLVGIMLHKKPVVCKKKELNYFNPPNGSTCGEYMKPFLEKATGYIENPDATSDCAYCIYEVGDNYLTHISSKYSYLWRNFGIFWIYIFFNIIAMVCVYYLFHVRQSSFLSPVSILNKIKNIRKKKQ

SMILES: Oc1cc(O)cc(O)c1 [phloroglucinol, benzene-1,3,5-triol]
- EC50 (CC787-1B yeast strain; Saccharomyces cerevisiae, 24 h, read-out: EC50 of phloroglucinol on growth): > 10000 µg/mL
- concentration from which phloroglucinol toxicity on yeast cells is apparent (CC787-1B yeast strain; conclusion): ≥ 15000 µg/mL
- concentration at which significant inhibition of the growth is observed (CC787-1B yeast strain; only in this medium among 1-15 g·l^−1, 28° C., 24 h): 15000 µg/mL
- transporter substrate status (SNQ2): substrate for SNQ2
- phloroglucinol inhibition in the presence of ethanol versus without ethanol (yeast cells): slightly greater
- concentrations giving total inhibition of the growth ([1]; 37° C.): greater than or equal to 2.5 g·l^−1
- EC50 ([1]; Escherichia coli, read-out: EC50 of phloroglucinol on growth): ~750 µg/mL (≈ 5.95 mM)
- inhibition of the growth ([1]; at the concentration of 1 g·l^−1, 37° C.): very considerable inhibition of the growth
